Legend:
[1] = target: T1, ABCA4 P1380L (Homo sapiens, UniProt P78363, P1380L); assay: A4 correction dose-response assay: ABCA4 P1380L HiBit protein expression; format: cell-based; settings: HEK-293 cells stably expressing HiBit-tagged ABCA4 P1380L; 24 h treatment; top concentration 30 μM; read-out: ABCA4 P1380L EC50, Emax
T1 construct: expressed in transfected cells
Experimental: Exemplary compounds were evaluated in an A4 correction dose-response assay.
To assess activity against ABCA4 P1380L, the compounds were screened in an assay measuring protein expression, using cells transfected with cDNA encoding HiBit-tagged ABCA4 P1380L. Here we describe an assay for measuring the expression of the P1380L variant of human ABCA4 (henceforth referred to as ABCA4 P1380L) and the use of this assay to measure the efficacy of compounds to increase the expression of ABCA4 P1380L. The assay was designed to characterize the efficacy and potency of compounds to increase the expression of ABCA4 P1380L by calculating an Emax and EC50 value. […] (5% CO2, humidified). […] After the four-hour incubation period, 60 nL of DMSO solutions are transferred to the assay plate.
(§1) Dose response curves include eleven doses with the top final concentration at 30 μM in 0.3% DMSO. Liquid handling is performed with ECHO 550 Acoustic Liquid Handler (Labcyte). After addition of compound treatment, cells are incubated for 24 hours at 37° C. (5% CO2, humidified). After the 24-hour treatment, plates are allowed to equilibrate to room temperature for 10 minutes. Using Dragonfly Automated Liquid Handler (TTP LabTech), 20 μl of HiBit lytic assay reagent (Promega, product #N3040), which is prepared according to manufacturer's instructions, is added to each well. The plates are rotated at room temperature for 2 minutes and incubated for 1 hour at 25° C. before luminescent signal is acquired using an EnVision Multimode Plate Reader (PerkinElmer).

[2] = target: T2, ABCD2 WT (Homo sapiens, UniProt Q9UBJ2); assay: D2 correction dose-response assay: ABCD2 WT HiBit protein expression; format: cell-based; settings: HEK-293/ABCD2 WT cells, 24 hours treatment, HiBit luminescence; class combines EC50 and Mean MaxAct (fold); read-out: ABCD2 WT EC50, Emax
T2 construct: expressed in transfected cells
T2 sequence (Q9UBJ2 1-740): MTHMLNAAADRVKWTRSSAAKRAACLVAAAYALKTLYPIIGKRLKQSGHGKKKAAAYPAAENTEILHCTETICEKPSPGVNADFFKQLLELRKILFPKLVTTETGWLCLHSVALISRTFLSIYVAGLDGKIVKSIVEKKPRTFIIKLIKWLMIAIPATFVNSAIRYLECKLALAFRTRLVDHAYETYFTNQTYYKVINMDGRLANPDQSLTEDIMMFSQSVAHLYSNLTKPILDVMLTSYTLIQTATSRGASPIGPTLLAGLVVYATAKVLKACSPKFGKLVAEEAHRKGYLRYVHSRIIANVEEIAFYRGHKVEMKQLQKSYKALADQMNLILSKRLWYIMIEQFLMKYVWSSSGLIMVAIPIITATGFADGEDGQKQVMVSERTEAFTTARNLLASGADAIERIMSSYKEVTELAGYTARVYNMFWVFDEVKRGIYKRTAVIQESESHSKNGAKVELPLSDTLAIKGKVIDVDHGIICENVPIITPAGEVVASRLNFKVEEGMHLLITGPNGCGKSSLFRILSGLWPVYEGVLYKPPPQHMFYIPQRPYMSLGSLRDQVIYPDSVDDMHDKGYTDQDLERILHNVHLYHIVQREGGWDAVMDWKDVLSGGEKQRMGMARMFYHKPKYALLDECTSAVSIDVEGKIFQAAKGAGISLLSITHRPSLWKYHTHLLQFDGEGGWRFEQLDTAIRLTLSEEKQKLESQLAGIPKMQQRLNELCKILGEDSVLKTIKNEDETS
Experimental: Exemplary compounds were evaluated in a D2 correction dose-response assay.
To assess activity against ABCD2, the compounds were screened in an assay measuring protein expression, using cells transfected with cDNA encoding HiBit-tagged ABCD2 wild-type. Here we describe an assay for measuring the expression of the wild type of human ABCD2 (henceforth referred to as ABCD2 WT) and the use of this assay to measure the efficacy of compounds to increase the expression of ABCD2 WT. The assay was designed to characterize the efficacy and potency of compounds to increase the expression of ABCD2 WT by calculating an Emax and EC50 value. HEK-293 cells stably expressing ABCD2 WT (HEK-293/ABCD2 WT) were used for this assay and were maintained at 37° C. (5% CO2, humidified) in Dulbecco's Modified Eagle Medium (DMEM, Gibco product #12100) supplemented with 10% fetal bovine serum (Biosera product #FB-1058/500), 1% PenStrep (HDB product #15140-122), and 0.5 mg/mL puromycin (Gibco product #A11138-03). For the assay, the HEK-293/ABCD2 WT cells were seeded in white/opaque 384-well plates (Corning product #3570) at 10,000 cells/well in 20 μl growth medium and allowed to settle for 4 hours at 37° C. (5% CO2, humidified). Compound serial dilutions are prepared in DMSO as three hundred times (333×) the final concentration and using a dilution factor of 3 using Bravo (Agilent). After the four-hour incubation period, 60 nL of DMSO solutions are transferred to the assay plate.
as §1

T1 sequence (P78363 whole entry P1380L): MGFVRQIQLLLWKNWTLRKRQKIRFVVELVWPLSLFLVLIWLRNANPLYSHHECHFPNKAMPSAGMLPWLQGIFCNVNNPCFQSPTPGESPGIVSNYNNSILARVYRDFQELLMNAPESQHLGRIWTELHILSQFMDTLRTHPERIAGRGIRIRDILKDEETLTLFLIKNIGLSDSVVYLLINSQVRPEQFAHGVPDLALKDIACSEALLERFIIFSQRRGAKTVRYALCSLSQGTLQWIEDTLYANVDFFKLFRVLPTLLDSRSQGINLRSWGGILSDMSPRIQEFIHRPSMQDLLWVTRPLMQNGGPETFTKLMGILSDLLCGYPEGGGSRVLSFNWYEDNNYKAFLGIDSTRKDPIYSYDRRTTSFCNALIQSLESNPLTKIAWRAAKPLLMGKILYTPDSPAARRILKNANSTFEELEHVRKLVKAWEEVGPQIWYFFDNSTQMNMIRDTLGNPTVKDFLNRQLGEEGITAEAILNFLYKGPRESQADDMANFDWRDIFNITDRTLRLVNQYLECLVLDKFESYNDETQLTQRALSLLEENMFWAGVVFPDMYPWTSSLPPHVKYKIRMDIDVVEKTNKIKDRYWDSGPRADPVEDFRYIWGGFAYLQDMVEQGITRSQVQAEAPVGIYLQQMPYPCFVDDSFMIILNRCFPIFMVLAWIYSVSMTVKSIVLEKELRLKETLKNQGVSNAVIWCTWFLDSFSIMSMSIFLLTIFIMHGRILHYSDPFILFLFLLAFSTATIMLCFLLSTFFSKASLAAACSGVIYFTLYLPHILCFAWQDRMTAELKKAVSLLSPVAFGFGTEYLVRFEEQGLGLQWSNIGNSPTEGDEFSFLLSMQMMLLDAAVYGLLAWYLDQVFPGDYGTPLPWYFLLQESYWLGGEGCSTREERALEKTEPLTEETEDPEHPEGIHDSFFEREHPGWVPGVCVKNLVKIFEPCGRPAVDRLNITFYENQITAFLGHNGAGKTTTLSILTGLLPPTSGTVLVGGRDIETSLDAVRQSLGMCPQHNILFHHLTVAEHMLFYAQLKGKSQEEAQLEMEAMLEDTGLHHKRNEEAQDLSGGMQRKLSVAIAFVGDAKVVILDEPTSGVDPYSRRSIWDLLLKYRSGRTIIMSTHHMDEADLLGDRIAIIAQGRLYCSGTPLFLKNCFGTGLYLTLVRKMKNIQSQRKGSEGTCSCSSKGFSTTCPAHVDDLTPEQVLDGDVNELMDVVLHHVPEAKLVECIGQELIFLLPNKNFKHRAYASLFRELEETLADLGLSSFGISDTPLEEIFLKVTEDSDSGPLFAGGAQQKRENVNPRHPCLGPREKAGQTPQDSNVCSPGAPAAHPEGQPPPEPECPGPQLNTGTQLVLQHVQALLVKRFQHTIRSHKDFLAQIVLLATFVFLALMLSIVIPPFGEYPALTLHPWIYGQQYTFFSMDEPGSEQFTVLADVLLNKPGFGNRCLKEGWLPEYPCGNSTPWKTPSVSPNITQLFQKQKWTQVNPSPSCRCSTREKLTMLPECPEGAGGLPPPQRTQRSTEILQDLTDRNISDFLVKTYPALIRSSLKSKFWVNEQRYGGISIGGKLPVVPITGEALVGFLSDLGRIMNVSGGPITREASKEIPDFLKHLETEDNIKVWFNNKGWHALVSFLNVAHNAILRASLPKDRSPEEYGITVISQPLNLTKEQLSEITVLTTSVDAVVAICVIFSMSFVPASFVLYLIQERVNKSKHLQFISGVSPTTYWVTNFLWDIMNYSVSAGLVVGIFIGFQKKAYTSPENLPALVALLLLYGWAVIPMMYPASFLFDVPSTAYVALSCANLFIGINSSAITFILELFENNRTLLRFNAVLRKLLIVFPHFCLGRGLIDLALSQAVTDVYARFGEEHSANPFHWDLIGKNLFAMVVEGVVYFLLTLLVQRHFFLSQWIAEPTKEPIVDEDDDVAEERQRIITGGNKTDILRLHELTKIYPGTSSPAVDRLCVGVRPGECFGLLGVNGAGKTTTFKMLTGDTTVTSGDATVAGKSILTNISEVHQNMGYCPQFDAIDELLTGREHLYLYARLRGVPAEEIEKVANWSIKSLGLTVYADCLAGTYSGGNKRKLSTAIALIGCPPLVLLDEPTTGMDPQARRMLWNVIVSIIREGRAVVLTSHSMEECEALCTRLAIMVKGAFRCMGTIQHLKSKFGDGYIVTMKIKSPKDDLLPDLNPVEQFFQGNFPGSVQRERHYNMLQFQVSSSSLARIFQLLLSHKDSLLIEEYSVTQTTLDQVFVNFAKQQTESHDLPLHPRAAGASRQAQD

Compound	EC50 [1] [µM]	EC50 [2] [µM]
Cc1cc(C(F)F)nc(C2CC2)c1Oc1nc(-c2cncc(C#N)c2)ccc1N(C)S(=O)(=O)C1CC1 [Compound I-134]	> 25	1 to 10
Cc1cc(C(F)(F)F)nc(C2CC2)c1Oc1nc(-c2cncc(C#N)c2)ccc1N(C)S(=O)(=O)C1CC1 [Compound I-139]	> 25	1 to 10
CNS(=O)(=O)c1ccc(-c2cncc(C#N)c2)nc1Oc1nc(C2CC2)sc1C [Compound I-308]	> 25	> 25
Cc1nc(C(F)(F)F)nc(C2CC2)c1Oc1nc(-c2cncc(C#N)c2)ccc1N(C)S(C)(=O)=O [Compound I-142]	> 25	1 to 10
CNS(=O)(=O)c1ccc(-c2cncc(C#N)c2)nc1Oc1c(C)cc(C2CC2)nc1C1CC1 [Compound I-298]	> 25	1 to 10
Cc1cc(C(F)(F)F)nc(C2CC2)c1Oc1nc(-c2cncc(C#N)c2)ccc1S(=O)(=O)N1CCOCC1 [Compound I-290]	> 25	> 25
Cc1cc(C(F)(F)F)nc(C2CC2)c1Oc1nc(-c2cncc(C#N)c2)ccc1S(=O)(=O)NC1COC1 [Compound I-305]	> 25	1 to 10
Cc1nc(C(F)(F)F)nc(C2CC2)c1Oc1nc(-c2cncc(Cl)c2)ccc1N(C)S(C)(=O)=O [Compound I-149]	> 25	> 25
Cc1cc(C(F)(F)F)nc(C2CC2)c1Oc1nc(-c2cncc(C#N)c2)ccc1S(=N)(=O)C1CC1 (centres unmarked) [Compound I-287]	> 25	> 25
CNS(=O)(=O)c1ccc(-c2cncc(C#N)c2)nc1Oc1c(C)nc(C(F)(F)F)nc1C1CC1 [Compound I-315]	> 25	10 to 25
Cc1cc(C)c(Oc2nc(-c3cncc(Cl)c3)ccc2S(=O)(=O)NC2CC2)c(C)c1 [Compound I-98]	> 25	< 1
Cc1nc(C(F)(F)F)nc(C2CC2)c1Oc1nc(-c2cncc(C#N)c2)ccc1S(=O)(=O)Nc1cnn(C)c1 [Compound I-309]	> 25	1 to 10
Cc1cc(C)c(Oc2nc(-c3cncc(Cl)c3)ccc2S(=O)(=O)N(C)C)c(C)c1 [Compound I-97]	> 25	1 to 10
Cc1cc(C)c(Oc2nc(-c3ccc(C#N)nc3C)ccc2NS(C)(=O)=O)c(C)c1 [Compound I-6]	10 to 25	< 1
Cc1nc(C)c(Oc2nc(-c3cncc(C#N)c3)ccc2N(C)S(C)(=O)=O)c(C2CC2)n1 [Compound I-157]	> 25	10 to 25
Cc1cc(C(F)F)nc(C2CC2)c1Oc1nc(-c2cncc(C#N)c2)ccc1N(C)S(C)(=O)=O [Compound I-135]	> 25	1 to 10
CNS(=O)(=O)c1ccc(-c2cncc(C#N)c2)nc1Oc1c(C)cc(C(F)F)nc1C1CC1 [Compound I-289]	> 25	1 to 10
Cc1cc(C)c(Oc2nc(-c3cncc(Cl)c3)ccc2S(N)(=O)=O)c(C)c1 [Compound I-100]	10 to 25	< 1
Cc1cc(C(F)(F)F)nc(C2CC2)c1Oc1nc(-c2cncc(C#N)c2)ccc1S(=N)(=O)c1ccccn1 (centres unmarked) [Compound I-302]	> 25	10 to 25
CNS(=O)(=O)c1ccc(-c2cncc(C#N)c2)nc1Oc1nc(C)sc1C1CC1 [Compound I-312]	> 25	> 25
Cc1cc(C(F)(F)F)nc(C2CC2)c1Oc1nc(-c2cncc(C#N)c2)ccc1N=S(C)(C)=O [Compound I-286]	> 25	< 1

More lines, now with the values ahead:

EC50 [1] [µM]	EC50 [2] [µM]	Compound
1 to 10	1 to 10	Cc1nc(C)c(Oc2nc(-c3cncc(Cl)c3)ccc2NS(C)(=O)=O)c(C2CC2)n1 [Compound I-164]
1 to 10	1 to 10	Cc1cc(C(F)F)nc(C2CC2)c1Oc1nc(-c2cncc(C#N)c2)ccc1S(=O)(=O)NC1CC1 [Compound I-288]
< 1	> 25	Cc1cc(C2CC2)nc(C2CC2)c1Oc1nc(-c2cncc(C#N)c2)ccc1NS(C)(=O)=O [Compound I-161]
1 to 10	1 to 10	Cc1cc(C)c(Oc2nc(-c3cccc(Cl)c3)ccc2S(=O)(=O)NC2CCOC2)c(C)c1 (centres unmarked) [Compound I-101]
10 to 25	> 25	CNS(=O)(=O)c1ccc(-c2cncc(C#N)c2)nc1Oc1c(C)nc(C(F)F)nc1C1CC1 [Compound I-313]
1 to 10	1 to 10	Cc1cc(C(F)(F)F)nc(C2CC2)c1Oc1nc(-c2cncc(C#N)c2)ccc1S(=N)(=O)c1cnccn1 (centres unmarked) [Compound I-297]
< 1	< 1	Cc1cc(C)c(Oc2nc(-c3cncc(C#N)c3)ccc2NS(C)(=O)=O)c(C)n1 [Compound I-5]
< 1	< 1	Cc1cc(C(F)(F)F)nc(C2CC2)c1Oc1nc(-c2cncc(Cl)c2)ccc1NS(C)(=O)=O [Compound I-158]
< 1	< 1	CCS(=O)(=O)Nc1ccc(-c2cncc(C#N)c2)nc1Oc1c(C)cc(C(F)(F)F)nc1C1CC1 [Compound I-152]
< 1	> 25	Cc1nc(C(F)F)nc(C2CC2)c1Oc1nc(-c2cncc(C#N)c2)ccc1NS(C)(=O)=O [Compound I-144]
1 to 10	1 to 10	Cc1cc(C)c(Oc2nc(-c3cncc(C#N)c3)ccc2N(C)S(=O)(=O)c2cccnc2)c(C2CC2)n1 [Compound I-136]
< 25	< 1	Cc1cc(C(F)(F)F)nc(C2CC2)c1Oc1nc(-c2cncc(C#N)c2)ccc1N(C)S(C)(=O)=O [Compound I-156]
< 25	> 25	Cc1nc(C(F)(F)F)cc(C2CC2)c1Oc1nc(-c2cncc(C#N)c2)ccc1N(C)S(C)(=O)=O [Compound I-154]
< 25	10 to 25	Cc1cc(C(F)(F)F)nc(C2CC2)c1Oc1nc(-c2cccc(C#N)c2)ccc1S(=N)(=O)C1CC1 (centres unmarked) [Compound I-295]
1 to 10	1 to 10	Cc1nc(C(F)(F)F)nc(C2CC2)c1Oc1nc(-c2cncc(C#N)c2)ccc1S(=O)(=O)NC1CC1 [Compound I-292]
1 to 10	10 to 25	Cc1cc(C2CC2)nc(C2CC2)c1Oc1nc(-c2cncc(C#N)c2)ccc1N(C)S(C)(=O)=O [Compound I-146]
< 1	> 25	Cc1nc(C2CC2)cc(C2CC2)c1Oc1nc(-c2cncc(C#N)c2)ccc1NS(C)(=O)=O [Compound I-162]
< 1	< 1	Cc1cc(C(F)(F)F)nc(C2CC2)c1Oc1nc(-c2cncc(C#N)c2)ccc1NS(=O)(=O)C1CC1 [Compound I-140]
1 to 10	> 25	Cc1cc(C)c(Oc2nc(-c3cncc(Cl)c3)ccc2S(C)(=O)=O)c(C)c1 [Compound I-104]

From US20250228835A1, “PYRIDINYLOXYPYRIDINES AND RELATED COMPOUNDS AND THEIR USE IN TREATING MEDICAL CONDITIONS” (Rectify Pharmaceuticals, Inc., priority 2024, published 2025)
